Reference: PubChem BioAssay AID1963442 (Molecular Pharmacology Branch, DTP, NCI, 2024)

Test system: MPNST complex spheroid with HUVEC/MSC, growth, % test/control
Test: Anticancer human tumor MPNST cell line growth inhibition [Asc];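 note: compounds left on spheroids for seven days before reading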
Details: for IC50: curve of first compound; for viability, T/C: stronger effect = lower value
Method in brief: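 Stromal components (HUVEC and hMSC) are co-assembled with the cancer cells into multicellular spheroids. Drugs are then added singly or paired, at concentrations falling by half-log increments from a clinically achievable maximum, capped at 10 microM without known Cmax.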

[1] = second compound 0.1 µM, first compound 0.00316 µM
[2] = second compound 0.1 µM, first compound 0.01 µM
[3] = second compound 0.1 µM, first compound 0.0316 µM
[4] = second compound 0.1 µM, first compound 0.1 µM
[5] = second compound 0.1 µM, first compound 0.316 µM
[6] = second compound 0.1 µM, first compound 1 µM
[7] = second compound 0.316 µM, first compound 0.00316 µM
[8] = second compound 0.316 µM, first compound 0.01 µM
[9] = second compound 0.316 µM, first compound 0.0316 µM
[10] = second compound 0.316 µM, first compound 0.1 µM
[11] = second compound 0.316 µM, first compound 0.316 µM
[12] = second compound 0.316 µM, first compound 1 µM
[13] = second compound 1 µM, first compound 0.00316 µM
[14] = second compound 1 µM, first compound 0.01 µM
[15] = second compound 1 µM, first compound 0.0316 µM
[16] = second compound 1 µM, first compound 0.1 µM
[17] = second compound 1 µM, first compound 0.316 µM
[18] = second compound 1 µM, first compound 1 µM
[19] = second compound 3.16 µM, first compound 0.00316 µM
[20] = second compound 3.16 µM, first compound 0.01 µM
[21] = second compound 3.16 µM, first compound 0.0316 µM
[22] = second compound 3.16 µM, first compound 0.1 µM
[23] = second compound 3.16 µM, first compound 0.316 µM
[24] = second compound 3.16 µM, first compound 1 µM
[25] = second compound 10 µM, first compound 0.00316 µM
[26] = second compound 10 µM, first compound 0.01 µM
[27] = second compound 10 µM, first compound 0.0316 µM
[28] = second compound 10 µM, first compound 0.1 µM
[29] = second compound 10 µM, first compound 0.316 µM
[30] = second compound 10 µM, first compound 1 µM

With `CCN1CCN(Cc2ccc(Nc3ncc(F)c(-c4cc(F)c5nc(C)n(C(C)C)c5c4)n3)nc2)CC1` + Cc1c(S(C)(=O)=O)c(-c2cc(F)cc(N3CCN(c4ccc(NS(=O)(=O)c5ccc(NC(CCN6CCC(C(=O)OCCCP(=O)(O)O)CC6)CSc6ccccc6)c(S(=O)(=O)C(F)(F)F)c5)cc4)CC3)c2)c(-c2ccc(Cl)cc2)n1C(C)C the IC50 (second compound 0.1 µM) was > 1000 nM, the IC50 (second compound 0.316 µM) was > 1000 nM and the IC50 (second compound 1 µM) was > 1000 nM. The IC50 (second compound 3.16 µM) was 1000 nM, the IC50 (second compound 10 µM) was 316 nM and the viability, T/C [1] was 75.8%. For the same molecule, the viability, T/C [2] was 72.3%, the viability, T/C [3] was 73.7% and the viability, T/C [4] was 78.3%. For the same molecule, the viability, T/C [5] was 55.8%, the viability, T/C [6] was 64.5% and the viability, T/C [7] was 82.8%. The viability, T/C [8] was 54.8%, the viability, T/C [9] was 75.6% and the viability, T/C [10] was 84.2%. It also gave a viability, T/C [11] of 53.5%, a viability, T/C [12] of 58% and a viability, T/C [13] of 76.6%. It also gave a viability, T/C [14] of 78.5%, a viability, T/C [15] of 76.9% and a viability, T/C [16] of 62.3%. It also gave a viability, T/C [17] of 53%, a viability, T/C [18] of 55.1% and a viability, T/C [19] of 73.3%. For the same molecule, the viability, T/C [20] was 77.9%, the viability, T/C [21] was 57% and the viability, T/C [22] was 47.6%. The viability, T/C [23] was 56.3%, the viability, T/C [24] was 47.3% and the viability, T/C [25] was 83.5%. The viability, T/C [26] was 91.4%, the viability, T/C [27] was 50.2% and the viability, T/C [28] was 52.8%. The viability, T/C [29] was 55.4% and the viability, T/C [30] was 47.1%.
For `NC(=O)C(=Cn1cnc(-c2cc(C(F)(F)F)cc(C(F)(F)F)c2)n1)c1cncnc1` + Cc1c(S(C)(=O)=O)c(-c2cc(F)cc(N3CCN(c4ccc(NS(=O)(=O)c5ccc(NC(CCN6CCC(C(=O)OCCCP(=O)(O)O)CC6)CSc6ccccc6)c(S(=O)(=O)C(F)(F)F)c5)cc4)CC3)c2)c(-c2ccc(Cl)cc2)n1C(C)C, the IC50 (second compound 0.1 µM) was > 300 nM, the IC50 (second compound 0.316 µM) was 172 nM and the IC50 (second compound 1 µM) was 72 nM. The IC50 (second compound 3.16 µM) was 37.4 nM, the IC50 (second compound 10 µM) was 75.6 nM and the viability, T/C (second compound 0.1 µM, first compound 0.000949 µM) was 56.9%. It also gave a viability, T/C (second compound 0.1 µM, first compound 0.003 µM) of 65.2%, a viability, T/C (second compound 0.1 µM, first compound 0.00949 µM) of 59% and a viability, T/C (second compound 0.1 µM, first compound 0.03 µM) of 80.2%. The viability, T/C (second compound 0.1 µM, first compound 0.0949 µM) was 66.9%, the viability, T/C (second compound 0.1 µM, first compound 0.3 µM) was 44.9% and the viability, T/C (second compound 0.316 µM, first compound 0.000949 µM) was 68.9%. For the same molecule, the viability, T/C (second compound 0.316 µM, first compound 0.003 µM) was 80%, the viability, T/C (second compound 0.316 µM, first compound 0.00949 µM) was 74.3% and the viability, T/C (second compound 0.316 µM, first compound 0.03 µM) was 64.3%. For the same molecule, the viability, T/C (second compound 0.316 µM, first compound 0.0949 µM) was 61.5%, the viability, T/C (second compound 0.316 µM, first compound 0.3 µM) was 40.6% and the viability, T/C (second compound 1 µM, first compound 0.000949 µM) was 78.6%. It also gave a viability, T/C (second compound 1 µM, first compound 0.003 µM) of 75.8%, a viability, T/C (second compound 1 µM, first compound 0.00949 µM) of 67.9% and a viability, T/C (second compound 1 µM, first compound 0.03 µM) of 54.4%. The viability, T/C (second compound 1 µM, first compound 0.0949 µM) was 50.6%, the viability, T/C (second compound 1 µM, first compound 0.3 µM) was 41.5% and the viability, T/C (second compound 3.16 µM, first compound 0.000949 µM) was 65.3%. For the same molecule, the viability, T/C (second compound 3.16 µM, first compound 0.003 µM) was 78.5%, the viability, T/C (second compound 3.16 µM, first compound 0.00949 µM) was 70.1% and the viability, T/C (second compound 3.16 µM, first compound 0.03 µM) was 51.5%. For the same molecule, the viability, T/C (second compound 3.16 µM, first compound 0.0949 µM) was 44.6%, the viability, T/C (second compound 3.16 µM, first compound 0.3 µM) was 39.3% and the viability, T/C (second compound 10 µM, first compound 0.000949 µM) was 73.3%. It also gave a viability, T/C (second compound 10 µM, first compound 0.003 µM) of 72.4%, a viability, T/C (second compound 10 µM, first compound 0.00949 µM) of 65.6% and a viability, T/C (second compound 10 µM, first compound 0.03 µM) of 58.4%. For the same molecule, the viability, T/C (second compound 10 µM, first compound 0.0949 µM) was 48% and the viability, T/C (second compound 10 µM, first compound 0.3 µM) was 34.6%.
For `O=C(c1ccc(F)c(F)c1Nc1ccc(I)cc1F)N1CC(O)([C@@H]2CCCCN2)C1` + Cc1c(S(C)(=O)=O)c(-c2cc(F)cc(N3CCN(c4ccc(NS(=O)(=O)c5ccc(NC(CCN6CCC(C(=O)OCCCP(=O)(O)O)CC6)CSc6ccccc6)c(S(=O)(=O)C(F)(F)F)c5)cc4)CC3)c2)c(-c2ccc(Cl)cc2)n1C(C)C, the IC50 (second compound 0.1 µM) was 303 nM, the IC50 (second compound 0.316 µM) was 336 nM and the IC50 (second compound 1 µM) was 259 nM. The IC50 (second compound 3.16 µM) was 240 nM, the IC50 (second compound 10 µM) was 181 nM and the viability, T/C [1] was 62.2%. It also gave a viability, T/C [2] of 69.7%, a viability, T/C [3] of 77.1% and a viability, T/C [4] of 95.3%. The viability, T/C [5] was 49%, the viability, T/C [6] was 22.4% and the viability, T/C [7] was 83%. For the same molecule, the viability, T/C [8] was 80.3%, the viability, T/C [9] was 107% and the viability, T/C [10] was 106%. It also gave a viability, T/C [11] of 51.9%, a viability, T/C [12] of 16.5% and a viability, T/C [13] of 82.9%. The viability, T/C [14] was 80.6%, the viability, T/C [15] was 106% and the viability, T/C [16] was 77%. It also gave a viability, T/C [17] of 44.3%, a viability, T/C [18] of 13.2% and a viability, T/C [19] of 86.2%. For the same molecule, the viability, T/C [20] was 90.3%, the viability, T/C [21] was 80.7% and the viability, T/C [22] was 110%. It also gave a viability, T/C [23] of 36.6%, a viability, T/C [24] of 14.5% and a viability, T/C [25] of 86.3%. It also gave a viability, T/C [26] of 81.9%, a viability, T/C [27] of 82.5% and a viability, T/C [28] of 72.8%. It also gave a viability, T/C [29] of 28.8% and a viability, T/C [30] of 8.55%.
